Paper PMC13286573, “Exploration of precision coregulator TR-FRET identifies diverse signatures for LXR ligands relevant to discovery of nonlipogenic ABCA1 inducers” (eLife, 2026)
Entries after “also recorded” stand apart in the source; their conditions may differ.

Legend:
[1] = target: T1, LXRα (Homo sapiens, UniProt Q13133); conditions: in the absence of agonist
T1 sequence (Q13133 209-447 limits assumed): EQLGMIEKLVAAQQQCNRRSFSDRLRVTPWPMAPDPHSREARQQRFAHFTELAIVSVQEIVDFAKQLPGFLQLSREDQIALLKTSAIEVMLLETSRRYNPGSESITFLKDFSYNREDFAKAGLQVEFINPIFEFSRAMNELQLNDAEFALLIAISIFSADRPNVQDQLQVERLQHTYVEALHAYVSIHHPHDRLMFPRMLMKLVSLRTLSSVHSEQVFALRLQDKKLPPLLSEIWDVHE

[2] = tested on: SREBF1, FAS, and SCD1; test: RT-PCR of lipogenic genes SREBF1, FAS, SCD1 in HepG2 cells; assay type: cell-based, human; conditions: HepG2, same conditions as SRE-luc
Protocol: Three of the biphenyl sulfones, XL041, XL652, and SR9238, gave anomalous activation data at concentrations above 1 µM, associated with interference with the nanoluciferase reporter (Figure 5—figure supplement 1). Owing to the anomalous response in the reporter assay, we measured lipogenic genes, SREBF1, FAS, and SCD1 by RT-PCR in HepG2 cells in response to treatment with the biphenyl sulfones (Figure 5G–I).
HepG2 cells were seeded in 12-well plates and treated with compounds for 24 hr. Following treatment, cells were washed once with PBS and then lysed in 350 μL of RLT buffer (Qiagen). Lysates were immediately frozen at −80 °C until RNA extraction. Total RNA was extracted using RNeasy Plus Mini columns (Qiagen) according to the manufacturer’s instructions. RNA concentration and purity were assessed using the A260/A280 ratio measured on a Synergy Neo2 plate reader (BioTek). […] Quantitative PCR was performed using TaqMan Gene Expression Master Mix (Invitrogen) with 2 μL of cDNA and gene-specific TaqMan probes in a 20 μL reaction volume per well. The following TaqMan assays were used: ABCA1: Hs01059101_m1, SREBF1: Hs01088691_m1, SCD: Hs01682761_m1, FASN: Hs01005622_m1, and HPRT1 (endogenous control): Hs02800695_m1. qPCR was performed on a StepOne Real-Time PCR System (Applied Biosystems), and gene expression was quantified using the ΔΔCt method.

[3] = tested on: obese mice on HFD; design: method as in Griffett et al., 2015; conditions: ref Griffett et al., 2015; cited from earlier work
[4] = tested on: sterol response element (SRE); test: SRE-luc reporter assay in HepG2 cells; assay type: cell-based, human
Procedure, shortened: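 HepG2 cells stably carrying an SRE (LDLR) promoter–NlucP reporter, grown in medium with charcoal-stripped FBS. Treated with compounds for 24 hr at 37 °C, then lysed and nanoluciferase luminescence read.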

[5] = target: T2, LXRβ (Homo sapiens, UniProt P55055); conditions: in the absence of agonist
T2 sequence (P55055 222-460 limits assumed): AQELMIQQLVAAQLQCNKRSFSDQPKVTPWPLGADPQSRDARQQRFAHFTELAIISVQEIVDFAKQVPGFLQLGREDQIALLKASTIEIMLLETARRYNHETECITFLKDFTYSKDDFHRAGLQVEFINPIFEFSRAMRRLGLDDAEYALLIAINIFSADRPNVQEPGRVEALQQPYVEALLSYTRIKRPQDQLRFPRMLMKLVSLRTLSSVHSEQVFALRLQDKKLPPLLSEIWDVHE

| SMILES | Coactivator recruitment to LXRα [1] | Lipogenic gene transcription (SREBF1, FAS, SCD1) by RT-PCR [2] | Plasma TG [3] | SRE activation response/phenotype in HepG2 [4] | Coactivator recruitment to LXRβ [5] |
| --- | --- | --- | --- | --- | --- |
| CCOC(=O)c1ccc(CN(Cc2ccc(-c3cccc(S(C)(=O)=O)c3)cc2)S(=O)(=O)c2c(C)cc(C)cc2C)o1 [SR9238] | unable to recruit coactivators to LXRα | reducing lipogenic gene transcription below baseline | plasma TG was suppressed | lowered SRE activation below baseline; also recorded: neutral or antagonist response; also recorded: inverse agonist at <3 µM concentration | very weakly supported coactivator recruitment to LXRβ |
| Cc1cc(C)c(S(=O)(=O)N(Cc2ccc(-c3cccc(S(C)(=O)=O)c3)cc2)Cc2ccc(C(F)(F)F)o2)c(C)c1 [GSK2033] | – | reducing lipogenic gene transcription below baseline | – | neutral or antagonist response | – |
